Measurements taken from patent publication US20220133747A1, “ESTROGEN RECEPTOR INHIBITORS AND USES THEROF” (The Regents of the University of California, priority 2018, published 2022).
Entries after “also recorded” stand apart in the source; their conditions may differ.

What was measured:
STAT3 = assay: Phosphorylated STAT3 in G-MDSC subpopulations, flow cytometry; format: cell-based, human; settings: 1 μM in normal medium with GM-CSF and IL6, 6 days
Method: Bone marrow cells from three breast cancer patients were incubated with GM-CSF and IL6 in the following groups: normal medium (contains estradiol) in the presence of vehicle (CON), 1 μM fulvestrant (FULV) or 1 μM S128. After 6 days, cells were subjected to flow cytometry using an antibody directed to phosphorylated STAT3 (p-STAT; 1).
FIGS. 22A-22B show expansion of MDSCs is dependent on estrogen signaling and reversed by antiestrogens. […] Retrospectively-collected BM cells from de-identified BC patients were purified by established methods including red blood cell lysis and Ficoll gradients and then incubated with GM-CSF and IL-6 for 6 days in either regular RPMI medium+15% FBS (NM) (contains estrogens), NM with antiestrogens (FULV or SERD128) or in phenol red-free medium with 15% charcoal coated-dextran treated FBS (EFM) (estrogen-depleted) with or without the addition of 100 nM estradiol-17β (EFM+E2). […]
(§1) Human myeloid-derived suppressor cells were expanded from bone marrow (BM) specimens of BC patients after standard Ficoll gradient purification and red blood cell lysis. […] After 6 days of culture, cells were harvested, stained with a 14 antibody panel including anti-phospho-STAT3 (pSTAT3) and analyzed by flow cytometry with an LSRII with a 5 lasers (UV, violet, blue, green-yellow and red). […]

[1] = test system: myeloid-derived suppressor cells (MDSC); assay: Expansion of human MDSC from bone marrow of BC patients, flow cytometry; format: cell-based; settings: 1 μM in normal medium with GM-CSF and IL-6, 5-6 days
Text: Bone Marrow cells from three breast cancer patients were purified by established methods including red blood cell lysis and Ficoll gradients (1-3,5, 5-7) and then cultured in the presence of IL-6 and GM-CSF in either estrogen-free medium (EFM), normal medium with control vehicle (NM) (which contains estrogens), normal medium with 1-μM fulvestrant (NM+FULV) or normal medium with 1-μM S128 (NM+S128). After 5 days, myeloid-derived cell populations were then identified by following the gating strategy of Ruffell et al. (2) as modified by Svoronos et al. (1). A) Percentage of total MDSC within CD45^+ population.
Total number of human MDSC derived from bone marrow (BM) of three of three BC patients (P<0.05). Cells were incubated in the presence of GM-CSF and IL-6 for 6 days in either regular RPMI medium+15% FBS (NM) (contains estrogens) or in phenol red-free medium with 15% charcoal coated-dextran treated FBS (EFM)(estrogen-depleted) with or without the addition of 100 nM estradiol-17β (EFM+E2). Normal cell culture medium (NM) drives E2-dependent signaling due to the presence of various estrogens in FBS as well as the estrogenic properties of phenol red. These effects were inhibited by the SERDs fulvestrant (FULV) and S128 at 1 μM
FIGS. 22A-22B show expansion of MDSCs is dependent on estrogen signaling and reversed by antiestrogens. […]
as §1

MCF-7 cells = assay: Cell proliferation assay, MCF-7 (MCF-7/PAR); format: cell-based, human; settings: 10 nM with 2 nM estradiol-17β, 48 hr
[2] = test system: MCF-7 human breast tumor xenografts; assay: MCF-7 human breast tumor xenografts in nude mice; format: in vivo; settings: 15 and 75 mg/kg once a day by oral gavage for 28 days
ERα = target: T1, ERα (Homo sapiens, UniProt P03372); assay: Downregulation of ER protein, PAGE and Western immunoblot in MCF-7 cells; format: cell-based; settings: 100 nM, 4 hours, phenol-red free medium without FBS
T1 construct: endogenous in cells; host or cells: MCF-7 human breast cancer cells (ATCC)
T1 sequence (P03372 1-595): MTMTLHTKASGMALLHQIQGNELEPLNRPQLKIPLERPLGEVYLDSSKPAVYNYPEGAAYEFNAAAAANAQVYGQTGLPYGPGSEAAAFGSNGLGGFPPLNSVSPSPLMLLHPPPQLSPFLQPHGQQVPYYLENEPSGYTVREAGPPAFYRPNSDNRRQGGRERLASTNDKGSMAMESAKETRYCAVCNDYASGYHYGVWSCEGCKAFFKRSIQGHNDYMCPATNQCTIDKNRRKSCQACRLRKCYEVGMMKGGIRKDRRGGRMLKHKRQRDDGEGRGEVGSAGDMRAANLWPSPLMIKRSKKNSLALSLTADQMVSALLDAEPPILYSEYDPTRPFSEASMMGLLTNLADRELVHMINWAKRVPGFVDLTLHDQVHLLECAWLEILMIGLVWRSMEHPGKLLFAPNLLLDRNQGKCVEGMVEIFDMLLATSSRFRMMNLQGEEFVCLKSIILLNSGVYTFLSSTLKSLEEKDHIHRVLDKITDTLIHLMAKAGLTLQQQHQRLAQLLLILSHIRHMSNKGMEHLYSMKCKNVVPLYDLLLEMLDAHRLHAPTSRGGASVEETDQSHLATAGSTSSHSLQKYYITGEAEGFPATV
Method: FIGS. 20A-20C show biologic activity of selected SERD candidates. […] ER-positive MCF-7 cells were treated in phenol-red free RPMI 1640 without FBS and containing vehicle control (CON) or 100 nM concentrations of either fulvestrant (FX) or antiestrogens 105, 109, 121, 140, 151, 160 or SERD128 in vitro. After 4 hours, cells were harvested and processed for PAGE and Western immunoblots using ERα antibody (1D5, Thermofisher Scientific). RPL13A was used as a loading control. […] Cells were dosed with either E2 alone or with SERDs combined with E2 in phenol redfree medium with 0.1% dextran-coated charcoal-treated FBS in luminometer plates. Data are presented as relative light units (RLU) relative to that of E2 alone in three replicate assays (4 wells per replicate) f SEM. Treatment with E2 alone induced a 12-fold induction of ER-dependent luciferase activity quantified as RLU relative to vehicle control-treated samples.
MCF7 cells were plated in regular medium. After 24 hrs, cells were incubated in the presence of antiestrogens or fulvestrant for 4 hrs in phenol-red free medium without FBS. Cell lysates were prepared using RIPA buffer, and protein concentration was determined using the BCA Protein Assay Kit (PIERCE/ThermoFisher Scientific). Forty micrograms of total cell protein was resolved by 4-15% SDS-PAGE, transferred to a PVDF membrane and probed with antibody directed against ERα (1D5, 1:100, ThermoFisher cat #MA5-13191). RPL13A (dilution 1:1000, Invitrogen/ThermoFisher cat #PA5-58528) was used as loading control.

T47D cells = assay: Cell proliferation assay, T47D; format: cell-based, human; settings: 10 nM with 2 nM estradiol-17β, 48 hr

| SMILES | p-STAT3 median fluorescence intensity in G-MDSC (STAT3) | p-STAT3 median fluorescence intensity in G-MDSC (STAT3; listed as S128) | total MDSC numbers (expansion of MDSC) [1] | total MDSC numbers (expansion of MDSC) ([1]; listed as S128) | cell proliferation (% of estradiol-treated controls) (MCF-7 cells) | tumor growth (tumor volume) [2] | downregulation of ER protein (ERα protein levels) (ERα) | downregulation of ER protein (ERα protein levels) (ERα; listed as 128) | cell proliferation (% of estradiol-treated controls) (T47D cells) |
| --- | --- | --- | --- | --- | --- | --- | --- | --- | --- |
| C[C@]12C[C@H](Oc3ccc(N)c(C(F)(F)F)c3)[C@@H]3c4ccc(O)cc4CC[C@H]3[C@@H]1CC[C@@H]2O [SERD128, (8S,9S,11S,13S,14S,17S)-11-(4-Amino-3-(trifluoromethyl)phenoxy)-13-methyl-7,8,9,11,12,13,14,15,16,17-decahydro-6H-cyclopenta[a]phenanthrene-3,17-diol] | blocks phosphorylation/activation of STAT3; also recorded: especially effective in blocking the phosphorylation and activation of STAT3 | blocks phosphorylation/activation of STAT3; also recorded: inhibits the STAT signaling pathway | significantly inhibited; also recorded: inhibits expansion and activation; also recorded: block E2-induced expansion of MDSCs; also recorded: exceeds that of fulvestrant at equivalent doses | substantially decreased; also recorded: inhibited; also recorded: inhibits E2-induced expansion of MDSC | significantly blocked proliferation; also recorded: significantly inhibited; also recorded: antiproliferative action | inhibits growth of human breast tumor xenografts in vivo; also recorded: significantly inhibited tumor growth in MCF-7 xenograft models in a dose-dependent manner; also recorded: inhibit the growth of human MCF-7 breast tumor xenografts in vivo in a dose-dependent manner; also recorded: potent biologic action in blocking the progression of breast tumors in vivo via an oral route of administration | comparable to that of the pure antiestrogen fulvestrant | most effective in reducing ER protein levels; also recorded: comparable to that of fulvestrant | significantly blocked proliferation; also recorded: significantly inhibited |
| C[C@]12CC[C@@H]3c4ccc(O)cc4C[C@@H](CCCCCCCCC[S+]([O-])CCCC(F)(F)C(F)(F)F)[C@H]3[C@@H]1CC[C@@H]2O (stereo partly shown) [fulvestrant, reference compound] |  |  | substantially decreased; also recorded: significantly inhibited; also recorded: block E2-induced expansion of MDSCs |  |  |  |  |  |  |
